ChEMBL document CHEMBL4270506, “Recent advances in drug discovery of phototherapeutic non-porphyrinic anticancer agents” (Eur J Med Chem, 2017)

Tests used:
[1] = Phototoxicity in human keloid fibroblasts assessed as cell viability at 2 to 8 umol/L pre-incubated for 4 hrs before 0.5 J.cm2 UVA irradiation by MTT assay; assay type: functional
[2] = system: HeLa; assay: Phototoxicity in human HeLa cells assessed as reduction in cell viability in presence of irradiation with white light; assay type: functional, cell-based; conditions: light or radiation study
[3] = system: HeLa; assay: Phototoxicity in human HeLa cells assessed as reduction in cell viability in presence of irradiation with 700 to 1000 nm near-infrared light; assay type: functional, cell-based; conditions: light or radiation study
[4] = Dark toxicity in human C8161 cells assessed as reduction in cell viability after 24 hrs by MTT assay; assay type: cell-based
[5] = Phototoxicity in human C8161 cells assessed as reduction in cell viability under irradiation with >500 nm light after 24 hrs by MTT assay; assay type: functional, cell-based; conditions: C8161, light or radiation study
[6] = system: PBMC; assay: Phototoxicity in human PBMC assessed as reduction in cell viability at 20 uM under irradiation with >500 nm light after 24 hrs by MTT assay; assay type: cell-based
[7] = Dark toxicity in human PBMC assessed as reduction in cell viability after 24 hrs by MTT assay; assay type: cell-based
[8] = system: PBMC; assay: Phototoxicity in human PBMC assessed as reduction in cell viability under irradiation with >500 nm light after 24 hrs by MTT assay; assay type: cell-based; conditions: light or radiation study
[9] = system: B16-F10; assay: Phototoxicity in mouse B16F10 cells assessed as reduction in cell viability under irradiation with >500 nm light after 24 hrs by MTT assay; assay type: functional, cell-based; conditions: B16-F10, light or radiation study
[10] = Dark toxicity in mouse B16F10 cells assessed as reduction in cell viability after 24 hrs by MTT assay; assay type: cell-based, B16-F10
[11] = Phototoxicity in human MCF7/DX cells assessed as inhibition of cell growth at 1 uM pre-incubated for 24 hrs before photoirradiation with 430 nm light and measured after 24 hrs post irradiation by MTT assay; assay type: functional; conditions: light or radiation study, read-out: GI
[12] = system: MCF7; assay: Phototoxicity in wild type human MCF7 cells assessed as inhibition of cell growth at 1 uM pre-incubated for 4 hrs before photoirradiation with 430 nm light and measured after 24 hrs post irradiation by MTT assay; assay type: functional; conditions: MCF7, light or radiation study, read-out: GI
[13] = Dark toxicity in wild type human MCF7 cells assessed as inhibition of cell growth at 1 uM after 24 hrs by MTT assay; assay type: cell-based; conditions: read-out: GI
[14] = Phototoxicity in human MCF7/DX cells assessed as inhibition of cell growth at 1 uM pre-incubated for 4 hrs before photoirradiation with 430 nm light and measured after 24 hrs post irradiation by MTT assay; assay type: functional; conditions: light or radiation study, read-out: GI
[15] = Dark toxicity in human MCF7/DX cells assessed as inhibition of cell growth at 1 uM after 24 hrs by MTT assay; assay type: cell-based; conditions: read-out: GI
[16] = system: MCF7; assay: Phototoxicity in wild type human MCF7 cells assessed as inhibition of cell growth at 1 uM pre-incubated for 24 hrs before photoirradiation with 430 nm light and measured after 24 hrs post irradiation by MTT assay; assay type: functional; conditions: MCF7, light or radiation study, read-out: GI
[17] = Phototoxicity in human SCC131 cells assessed as reduction in cell viability pre-incubated for 1 hr before photo-irradiation with 700 mW-630 nm laser light for 15 mins by MTT assay; assay type: functional, cell-based; conditions: SCC131, light or radiation study
[18] = system: HeLa; assay: Phototoxicity in human HeLa cells assessed as reduction in cell viability pre-incubated for 1 hr before photo-irradiation with 700 mW-630 nm laser light for 15 mins by MTT assay; assay type: functional, cell-based; conditions: light or radiation study
[19] = system: MIA PaCa-2; assay: Phototoxicity in human MIAPaCa2 cells assessed as reduction in cell viability pre-incubated for 1 hr before photo-irradiation with 700 mW-630 nm laser light for 15 mins by MTT assay; assay type: functional, cell-based; conditions: MIA PaCa-2, light or radiation study
[20] = Dark toxicity in human HCT116 cells assessed as reduction in cell viability by MTT assay; assay type: cell-based, HCT-116
[21] = Dark toxicity in human MDA-MB-231 cells assessed as reduction in cell viability by MTT assay; assay type: cell-based
[22] = Dark toxicity in human MCF10A cells assessed as reduction in cell viability by MTT assay; assay type: cell-based, MCF-10A
[23] = Dark toxicity in human MIAPaCa2 cells assessed as reduction in cell viability by MTT assay; assay type: cell-based, MIA PaCa-2
[24] = Phototoxicity in Chinese hamster AS52 cells assessed as cloning efficiency at 1 uM under irradiation by visible light at 337.5 kJ/m2 between 400 to 800 nm; assay type: functional, Cricetulus griseus
[25] = system: HCT-116; assay: Phototoxicity in human HCT116 cells assessed as reduction in cell viability pre-incubated for 1 hr before photo-irradiation with 700 mW-630 nm laser light for 15 mins by MTT assay; assay type: functional, cell-based; conditions: HCT-116, light or radiation study
[26] = system: MDA-MB-231; assay: Phototoxicity in human MDA-MB-231 cells assessed as reduction in cell viability pre-incubated for 1 hr before photo-irradiation with 700 mW-630 nm laser light for 15 mins by MTT assay; assay type: functional, cell-based; conditions: MDA-MB-231, light or radiation study
[27] = Dark toxicity in human SCC131 cells assessed as reduction in cell viability by MTT assay; assay type: cell-based
[28] = system: MCF-10A; assay: Phototoxicity in human MCF10A cells assessed as reduction in cell viability pre-incubated for 1 hr before photo-irradiation with 700 mW-630 nm laser light for 15 mins by MTT assay; assay type: cell-based; conditions: light or radiation study
[29] = Dark toxicity in human MCF7 cells assessed as reduction in cell viability by MTT assay; assay type: cell-based
[30] = Dark toxicity in human SiHa cells assessed as reduction in cell viability by MTT assay; assay type: cell-based
[31] = Dark toxicity in human HeLa cells assessed as reduction in cell viability by MTT assay; assay type: cell-based
[32] = system: SiHa; assay: Phototoxicity in human SiHa cells assessed as reduction in cell viability pre-incubated for 1 hr before photo-irradiation with 700 mW-630 nm laser light for 15 mins by MTT assay; assay type: functional, cell-based; conditions: light or radiation study
[33] = Dark toxicity in Chinese hamster AS52 cells assessed as cloning efficiency at 1 uM; assay type: cell-based, Cricetulus griseus
[34] = system: L5178Y; assay: Phototoxicity in mouse L5178Y cells assessed as cell viability at 0.5 uM under irradiation by visible light at 337.5 kJ/m2 between 400 to 800 nm; assay type: functional; conditions: light or radiation study, read-out: Activity
[35] = Phototoxicity in human SCC172 cells assessed as reduction in cell viability pre-incubated for 1 hr before photo-irradiation with 700 mW-630 nm laser light for 15 mins by MTT assay; assay type: functional, cell-based; conditions: SCC172, light or radiation study
[36] = Dark toxicity in mouse L5178Y cells assessed as cell viability at 0.5 uM; assay type: cell-based; conditions: read-out: Activity
[37] = system: MCF7; assay: Phototoxicity in human MCF7 cells assessed as reduction in cell viability pre-incubated for 1 hr before photo-irradiation with 700 mW-630 nm laser light for 15 mins by MTT assay; assay type: functional, cell-based; conditions: MCF7, light or radiation study
[38] = Dark toxicity in human SCC172 cells assessed as reduction in cell viability by MTT assay; assay type: cell-based
[39] = system: HeLa; assay: Phototoxicity in human HeLa cells assessed as reduction in cell viability in presence of irradiation with 625 nm laser light by MTT assay; assay type: functional, cell-based; conditions: light or radiation study
[40] = Phototoxicity in human MCF7/DX cells assessed as inhibition of cell growth at 1 uM pre-incubated for 24 hrs before photoirradiation with 530 to 550 nm light and measured after 24 hrs post irradiation by MTT assay; assay type: functional; conditions: light or radiation study, read-out: GI
[41] = system: MCF7; assay: Phototoxicity in wild type human MCF7 cells assessed as inhibition of cell growth at 1 uM pre-incubated for 24 hrs before photoirradiation with 630 nm light and measured after 24 hrs post irradiation by MTT assay; assay type: functional; conditions: MCF7, light or radiation study, read-out: GI
[42] = Phototoxicity in human MCF7/DX cells assessed as inhibition of cell growth at 1 uM pre-incubated for 24 hrs before photoirradiation with 630 nm light and measured after 24 hrs post irradiation by MTT assay; assay type: functional; conditions: light or radiation study, read-out: GI
[43] = Phototoxicity in human MCF7/DX cells assessed as inhibition of cell growth at 1 uM pre-incubated for 4 hrs before photoirradiation with 530 to 550 nm light and measured after 24 hrs post irradiation by MTT assay; assay type: functional; conditions: light or radiation study, read-out: GI
[44] = Phototoxicity in human MCF7/DX cells assessed as inhibition of cell growth at 1 uM pre-incubated for 4 hrs before photoirradiation with 630 nm light and measured after 24 hrs post irradiation by MTT assay; assay type: functional; conditions: light or radiation study, read-out: GI
[45] = system: MCF7; assay: Phototoxicity in wild type human MCF7 cells assessed as inhibition of cell growth at 1 uM pre-incubated for 24 hrs before photoirradiation with 530 to 550 nm light and measured after 24 hrs post irradiation by MTT assay; assay type: functional; conditions: MCF7, light or radiation study, read-out: GI
[46] = system: MCF7; assay: Phototoxicity in wild type human MCF7 cells assessed as inhibition of cell growth at 1 uM pre-incubated for 4 hrs before photoirradiation with 630 nm light and measured after 24 hrs post irradiation by MTT assay; assay type: functional; conditions: MCF7, light or radiation study, read-out: GI
[47] = system: MCF7; assay: Phototoxicity in wild type human MCF7 cells assessed as inhibition of cell growth at 1 uM pre-incubated for 4 hrs before photoirradiation with 530 to 550 nm light and measured after 24 hrs post irradiation by MTT assay; assay type: functional; conditions: MCF7, light or radiation study, read-out: GI

SMILES: Nc1ccc(-c2nc3ccccc3s2)cc1
- Activity [1]: 50%

SMILES: Nc1ccc(-c2ccc3nc4ccc(-c5ccc(N)cc5)cc4[s+]c3c2)cc1
- EC50 [2]: 6 µM
- EC50 [3]: 8 µM

SMILES: CCN1/C(=C\C=C\c2sc3cc4c(cc3[n+]2CC)sc(/C=C/C=C2\N(CC)c3ccccc3C2(C)C)[n+]4CC)C(C)(C)c2ccccc21
- IC50 at 24 h [4]: 20 µM
- IC50 [5]: 5 µM
- Activity [6]: <= 70%
- IC50 at 24 h [7]: 20 µM
- IC50 [8]: 20 µM
- IC50 [9]: 5 µM
- IC50 at 24 h [10]: 20 µM

SMILES: CCN1C(=O)/C(=C\C=C2/SCCN2C)OC1=S
- inhibition of growth at 1 µM [11]: 10%
- inhibition of growth at 1 µM [12]: > 40%
- inhibition at 24 h, 1 µM [13]: 20%
- inhibition of growth at 1 µM [14]: 40%
- inhibition at 24 h, 1 µM [15]: 10%
- inhibition of growth at 1 µM [16]: 20%

SMILES: O=C1C(I)=C(O)C(=C2C(=O)C(c3c(O)c(I)c(O)c(I)c3O)=C2O)C(O)=C1I
- IC50 [17]: 30.7 µM
- IC50 [18]: 36 µM
- IC50 [19]: 28.3 µM
- IC50 [20]: > 50 µM
- IC50 [21]: > 50 µM
- IC50 [22]: > 50 µM
- IC50 [23]: > 50 µM
- Activity [24]: 10%
- IC50 [25]: 26 µM
- IC50 [26]: 19.8 µM
- IC50 [27]: > 50 µM
- IC50 [28]: 44.7 µM
- IC50 [29]: > 50 µM
- IC50 [30]: > 50 µM
- IC50 [31]: > 50 µM
- IC50 [32]: 33.7 µM
- Activity [33]: 90%
- viability at 0.5 µM [34]: < 10%
- IC50 [35]: 34.7 µM
- viability at 0.5 µM [36]: 90%
- IC50 [37]: 25.3 µM
- IC50 [38]: > 50 µM

SMILES: COC(=O)c1ccc(C2=C3C(Br)=c4sc(-c5ccc(Br)s5)cc4=[N+]3[B-](F)(F)n3c2cc2sc(-c4ccc(Br)s4)cc23)cc1
- IC50 [39]: 7.12 µM

SMILES: CCN1/C(=C/C(C)=C/c2sc3ccccc3[n+]2CC)Sc2ccccc21
- inhibition of growth at 1 µM [40]: 20%
- inhibition of growth at 1 µM [41]: 80%
- inhibition at 24 h, 1 µM [13]: 20%
- inhibition of growth at 1 µM [42]: > 80%
- inhibition of growth at 1 µM [43]: 20%
- inhibition at 24 h, 1 µM [15]: 10%
- inhibition of growth at 1 µM [44]: 60%
- inhibition of growth at 1 µM [45]: 60%
- inhibition of growth at 1 µM [46]: 50%
- inhibition of growth at 1 µM [47]: 60%
